Laboratory results from patent publication US8802240B2, “Uses of formulations of thyroid hormone analogs and nanoparticulate forms thereof to increase chemosensitivity and radiosensitivity in tumor or cancer cells” (Nanopharmaceuticals LLC, priority 2011, dated 2014).
Entries after “also recorded” stand apart in the source; their conditions may differ.

Experiments:
GL261 cells [1] = assay: GL261 cell multiplicity after Tetrac exposure; type: cell-based, murine; conditions: one hour exposure to Tetrac
Procedure: Cell multiplicity (CM) was determined from Giemsa stained slides by counting the number of cells per microcolony under 20× magnification. At least 400 microcolonies were counted.
The length of time that Tetrac biologically affected GL261 cells was also determined. To do this, the multiplicity relationship defined above was utilized. Tetrac was added to cells one hour prior to the determination of the multiplicity. After the exposure of exponentially growing GL261 cells to Tetrac, the Tetrac containing medium was removed from GL261 cells, which contained an unknown residual and fresh medium (without Tetrac) was added. As a function of time (i.e., 0, 1, 2, 3, 4, 6, 8, and 10 hours, and 1-6 days), the cells, containing an unknown residual amount of remaining Tetrac, were then processed for determination of the multiplicity index (i.e. the number of cells per microcolony).

GL261 cells [2] = assay: GL261 apoptosis and necrosis with or without 5 Gy x-rays; type: cell-based, murine; conditions: Tetrac 2 μM, T-NP 0.2 μM
Procedure: Apoptotic cells were identified using TUNEL staining (Terminal deoxynucleotidyl transferase dUTP nick end labeling (TUNEL)) (staining kit obtained from Oncor, Gaithersberg, Md.; ApoTag) (See Gavrieli et al., J. Cell. Biol. 1992. 119:493-501). The staining procedures were carried out as instructed by the manufacturer. Gill's hematoxylin was used as a counterstain to discriminate negative cells (purple) from positive cells (brown). Negative controls were performed by omitting the terminal deoxynucleotidyl transferase enzyme. Positive controls were performed by incubating cells with Dnase I (3000 U/ml) in 50 mM Tris-HCl, pH 7.5, in 1 mg/ml bovine serum albumin (BSA) for 10 min at ambient temperature.
To perform FCM, a total of 10^6 adherent cells were trypsinized and washed once in ambient temperature PBS. They were then fixed in 70% ethanol, and stored overnight, at 4° C. […] Cells were left overnight at 4° C. in the dark and were then analyzed on a Coulter fluorescence-activated cell sorter (Coulter Electronics, Hialeah, Fla.). Cells were excited with a single 488 nm argon laser and the resulting fluorescence was detected using a 585 nm filter. Linear red-orange fluorescence (FL3) data were collected in list format and 10,000 events were collected. The distribution of cells within the cell cycle (sub-G1, G1, S, and G2+M phases) was determined using a Coulter software program.

[3] = tested on: DNA double-strand breaks in U87MG cells; assay: U87MG neutral comet assay of DNA double-strand breaks; type: cell-based, human
Procedure: For the comet assay studies of induction and repair of DSBs in U87MG cells, cells were treated as described above. However, for the single dose induction of DSBs doses ranged from 0-30 Gy, and for the study of the repair of DSBs in irradiated cells, a large single dose of 60 Gy requiring approximately 1 h of irradiation time was given. Appropriate temperature controls (on ice) were run to insure that no decrement in survival was produced by the 1 h exposure to 0° C.
U87MG cells on plastic slides were exposed to 2 nM Tetrac for 1 h at 37° C. These slides were then placed on crushed ice and irradiated with doses from 0 to 75 Gy. Slides were immersed in lysing solution at 50° C. for 2 hours. Slides were washed, and placed into a gel electrophoresis unit. Electrophoresis was carried out at 0.66 V/cm for 25 min. Cells were stained with ethidium bromide and image analysis was done using an epifluoresence microscope at a total magnification of 400×. We also used an excitation filter of 515-535 nm and a barrier filter at 590 nm. The mean tail moment (TM) which is expressed in arbitrary units was then calculated. TM was calculated using a CCD camera and software. Approximately 350 comets were analyzed per condition.

[4] = tested on: P-gp, GST and SOD in MCF7/R cells; assay: Western blot of classical drug resistance genes; type: cell-based; conditions: 24 h
Procedure: FIG. 15A is a Western blofshowing the expression of P-gp, GST and SOD in wild type (W) drug sensitive and resistant (R) MCF7 cells. […] The cells were treated for 24 h with each drug alone or the combination of both, after that, expression of drug resistance molecules was determined by Western blot using specific antibodies. […] The cells were incubated for 24 hours with doxorubicin in the absence or the presence of Tetrac, after that they were washed and then solubilized. Radioactivity associated with the cell lysates was counted and compared between the two cell lines either treated or not with Tetrac. The data represent an average of 3 determinations±SE.

[5] = tested on: medullary thyroid carcinoma cells implanted in CAM; assay: CAM cancer implant model; type: in vivo, chick; conditions: 1 μg/CAM; n = 8; P<0.01
Procedure: The effect of Tetrac versus nanoparticulate Tetrac at 1.0 μg/CAM on tumor angiogenesis and tumor growth of 1×10^6 medullary thyroid carcinoma cells implanted in Matrigel in 7 day-old CAM's was determined 8 days after implantation. […] Data represent mean tumor weight (mg) and tumor hemoglobin (mg/dL)±SEM per treatment group, n=8 per group.

[6] = tested on: chick chorioallantoic membrane (CAM) blood vessel branch points; assay: Chick chorioallantoic membrane (CAM) model of angiogenesis; type: in vivo
Procedure: In vivo neovascularization was examined by methods described previously. 9-12 Ten-day-old chick embryos were purchased from SPAFAS (Preston, Conn.) and incubated at 37° C. with 55% relative humidity. A hypodermic needle was used to make a small hole in the shell concealing the air sac, and a second hole was made on the broad side of the egg, directly over an avascular portion of the embryonic membrane that was identified by candling. A false air sac was created beneath the second hole by the application of negative pressure at the first hole, causing the CAM to separate from the shell. […] Thyroid hormone, hormone analogs, FGF2 or control solvents, and inhibitors were then applied to the disks and the disks allowed to dry. The disks were then suspended in PBS and placed on growing CAMs. […] At 24 hours, the MAPK cascade inhibitor PD 98059 was also added to CAMs topically by means of the filter disks. […] The number of vessel branch points contained in a circular region equal to the area of each filter disk were counted. […] In addition, each experiment was performed 3 times. The resulting angiogenesis index is the mean±SEM of new branch points.

O=C(O)Cc1cc(I)c(Oc2cc(I)c(O)c(I)c2)c(I)c1 [Tetrac, tetraiodothyroacetic acid]
time for a 50% return of the cell multiplicity factor towards control (GL261 cells [1]): approximately 2.5 days | time post Tetrac treatment at which the decrease in the CM factor was at 50% (GL261 cells [1]): 60 h | half-time for Tetrac uptake (Tetrac uptake): 10 to 15 min | effect on necrosis, necrotic percentage at 120 hours (in words) (GL261 cells [2]): essentially additive | effect plus 5 Gy of x-rays on apoptosis (in words) (GL261 cells [2]): supra-additive | effect on the slope of the mean tail moment in graded single dose studies (in words) [3]: did not affect the slope of the mean tail moment | sensitization factor from mean tail moment at 0 Gy [3]: 2.2 | inhibition of repair of DNA double strand breaks / decrease of repair rate ([3]; [(1.00−slope Tetrac/slope control)×100]): 72.5% | slope of time-dependent DSB repair ([3]; after 30 Gy of x-rays, control −4.36): −1.20 | expression of P-glycoprotein, SOD and GST-π (in words) [4]: none of these genes was significantly altered | tumor growth (in words) [5]: effective inhibition | tumor-mediated angiogenesis (in words) [5]: significant inhibition | effect on angiogenesis stimulated by T4-agarose (in words) ([6]; T4-agarose 0.1 μmol/L + Tetrac): inhibited | effect on angiogenesis stimulated by T4 (in words) ([6]; Tetrac 0.1 μmol/L, T4 0.1 μmol/L): inhibited the action of T4 | effect of Tetrac alone on angiogenesis (in words) ([6]; Tetrac alone): had no effect on angiogenesis; also recorded: does not stimulate angiogenesis
